From patent EP2907512A1, “Inhibitors of MMP-12 as antiviral Agents” (COMMISSARIAT A L'ENERGIE ATOMIQUE ET AUX ENERGIES …, priority 2014, dated 2015)

System: HeLa cells
Assay: IFNα secretion (ELISA) and IFNα immunostaining in CVB3-infected HeLa cells pre-treated with inhibitors
Assay type: cell-based
Conditions: for IFNα secretion: cells infected with CVB3, ELISA of medium, vs DMSO control

Row | SMILES | intracellular IFNα staining (HeLa cells infected with CVB3 for 4 h, immunostaining) | IFNα secretion
1 | Cc1ccc(S(=O)(=O)/C=C/C#N)cc1 [Bay11-7082] | greater intracellular IFNα staining | not secreted
2 | N#CC(=C(/N)Sc1ccccc1N)/C(C#N)=C(\N)Sc1ccccc1N [Compound U0126] | – | secreted
